Tests used:
Type in all cases: in vivo, ICR mice
[1] = tested on: castor oil-induced diarrhea in mice; experiment: Castor oil-induced diarrhea in mice; settings: castor oil model, FIG. 6; for inhibitory effect on diarrhea (stools rate, stools grade, diarrhea index): oral, corilagin 30 and 60 mg/kg, ellagic acid 15 and 30 mg/kg
Experimental: ICR mice weighing 18-22 g were purchased from the Laboratory Animal Services Center, The Chinese University of Hong Kong. The animals were fed with a rodent standard diet with free access to water, and were kept in rooms maintained at 22±1° C. with a 12 h light/dark cycle following international recommendations. All experimental protocols were approved by The Animal Ethics Committees of Hong Kong Baptist University, in accordance with “Institutional Guidelines and Animal Ordinance” (Department of Health, Hong Kong Special Administrative Region). The castor oil-induced diarrhea model, as previously described by Zhou, et al in Zhou [NT]; Hu Zhihua; Wang […]; et al (Institute of Chinese Materia Medica, China Pharmaceutical University, Nanjing); An Inquiry into Preparing Diarrhea Model of Mice and Application of Diarrhea Index[J]; Chinese Traditional and Herbal Drugs; 1994-04, was used in the present study. In brief, extracts, fractions or major components of P. chinense, and loperamide were administered orally for 5 consecutive days. On day 5, each animal was kept individually in a cage, the floor of which was lined with blotting paper, and the paper was changed every hour. 30 min after the last treatment, diarrhea was induced by oral administration of castor oil ([…]). Number of total fecal pellets and wet faeces were counted in 4 h after the administration of castor oil. The diameter of wet faeces was measured and scored in order to evaluate stool consistency as follows: 1-the diameter of wet […] than 1.0 cm; 2-the diameter of wet […] between 1.0 and 2.0 cm; 3-the diameter of wet […] between 2.0 and 3.0 cm; 4- the diameter of wet […] more than 3.0 cm. The stool rate (SR) was calculated through comparing of the number of wet faeces and total faeces, and stool grade (SG) was evaluated according to the formula: [formula] where Nwet is the number of wet faeces; N<1, N1-2, N2-3 and N>3 are the number of wet faeces whose diameter are less than 1.0 cm, between 1.0 and 2.0 cm, between 2.0 and 3.0 cm, and more than 3.0 cm, respectively. Finally, the stool severity was evaluated by the in vivo diarrheal index (DI) and expressed as follows according to the method of Zhou, et al. DI=SR×SG

[2] = tested on: intestinal fluid secretion evoked by MgSO4 in mice; experiment: Antienteropooling assay (MgSO4-evoked intestinal fluid accumulation); settings: 5 days, compared to control group, FIG. 7
Experimental: ICR mice weighing 18-22 g were purchased from the Laboratory Animal Services Center, The Chinese University of Hong Kong. The animals were fed with a rodent standard diet with free access to water, and were kept in rooms maintained at 22±1° C. with a 12 h light/dark cycle following international recommendations. All experimental protocols were approved by The Animal Ethics Committees of Hong Kong Baptist University, in accordance with “Institutional Guidelines and Animal Ordinance” (Department of Health, Hong Kong Special Administrative Region). The experiment was conducted as previously described with a litter revision. Animals will be randomly divided into six groups. Vehicle control group received 0.5% CMC suspension (10 ml/kg, p.o.), the positive control group was administered loperamide at the dose of 2 mg/kg orally; the test groups were orally administered major principles ellagic acid at the doses of 15 and 30 mg/kg, and corilagin at the doses of 30 and 60 mg/kg, respectively. The whole treatment lasted for 5 consecutive days. Before the last treatment, the mice of all groups were fasted overnight. After one hour of the last treatment on day 5, all groups were given the diarrhea reagent (0.5 ml/mouse of a 20% aq. MgSO4, orally). They were killed 30 min later and the small intestines were collected and weighed to find out the accumulation of intestinal fluid secretion evoked by MgSO4.

[3] = tested on: intestinal transit of charcoal meal in mice; experiment: Gastrointestinal transit test (charcoal meal); settings: 5 days, FIG. 7
Experimental: ICR mice weighing 18-22 g were purchased from the Laboratory Animal Services Center, The Chinese University of Hong Kong. The animals were fed with a rodent standard diet with free access to water, and were kept in rooms maintained at 22±1° C. with a 12 h light/dark cycle following international recommendations. All experimental protocols were approved by The Animal Ethics Committees of Hong Kong Baptist University, in accordance with “Institutional Guidelines and Animal Ordinance” (Department of Health, Hong Kong Special Administrative Region). The experiment was conducted based on methods known in the art with a litter revision. Animals will be randomly divided into six groups. Vehicle control group received 0.5% CMC suspension (10 ml/kg, p.o.), the positive control group was administered loperamide at the dose of 2 mg/kg orally; the test groups were orally administered major principles ellagic acid at the doses of 15 and 30 mg/kg, and corilagin at the doses of 30 and 60 mg/kg, respectively. The whole treatment lasted for 5 consecutive days. Before the last treatment, the mice of all groups were fasted overnight. Five minutes later of the last treatment on day 5, 0.5 ml of a 3% suspension of deactivated charcoal in 0.5% aqueous Sodium Carboxymethyl Cellulose was administered orally to each mouse. All the mice were killed by cervical […] 30 min later and the distance travelled by the charcoal plug from pylorus to caecum was determined and expressed as a percentage of the total length of the small intestine.

[4] = tested on: magnesium sulphate-induced diarrhea in mice; experiment: Magnesium sulphate-induced diarrhea in mice; settings: magnesium sulfate model, FIG. 6; for inhibitory effect on diarrhea (stools rate, stools grade, diarrhea index): oral, corilagin 30 and 60 mg/kg, ellagic acid 15 and 30 mg/kg
Experimental: ICR mice weighing 18-22 g were purchased from the Laboratory Animal Services Center, The Chinese University of Hong Kong. The animals were fed with a rodent standard diet with free access to water, and were kept in rooms maintained at 22±1° C. with a 12 h light/dark cycle following international recommendations. All experimental protocols were approved by The Animal Ethics Committees of Hong Kong Baptist University, in accordance with “Institutional Guidelines and Animal Ordinance” (Department of Health, Hong Kong Special Administrative Region). A protocol for castor oil-induced diarrhea was followed. In brief, diarrhea was induced by orally administration of magnesium sulphate at the dose of 3 g/kg to the animals 30 min after pretreatment with extracts, fractions or major components of P. chinense, and loperamide. All the administrations are carried out through oral route. Stool rate (SR), stool grade (SG) and diarrheal index (DI) were all evaluated.

[5] = 60 mg/kg oral vs loperamide 2 mg/kg
[6] = 30 mg/kg oral vs loperamide 2 mg/kg

Compound | anti-diarrheal activity compared to loperamide [1, 5] | inhibitory effect on diarrhea (stools rate, stools grade, diarrhea index) [1] | intestinal fluid volume (pylorus to caecum) ([2]; 30 mg/kg oral) | intestinal fluid volume (pylorus to caecum) ([2]; 60 mg/kg oral) | intestinal transit of charcoal meal ([3]; 15 mg/kg oral) | intestinal transit of charcoal meal ([3]; 30 mg/kg oral) | anti-diarrheal activity compared to loperamide [4, 5] | inhibitory effect on diarrhea (stools rate, stools grade, diarrhea index) [4] | anti-diarrheal activity compared to loperamide [1, 6] | intestinal fluid volume (pylorus to caecum) ([2]; 15 mg/kg oral) | anti-diarrheal activity compared to loperamide [4, 6]
O=C(O[C@@H]1O[C@@H]2COC(=O)c3cc(O)c(O)c(O)c3-c3c(cc(O)c(O)c3O)C(=O)O[C@H]([C@H]1O)[C@@H]2O)c1cc(O)c(O)c(O)c1 [corilagin] | comparable anti-diarrheal activities as loperamide | significantly inhibitory effects | significantly reduced | significantly reduced | significantly delay | significantly delay | comparable anti-diarrheal activities as loperamide | significantly inhibitory effects | – | – | –
O=c1oc2c(O)c(O)cc3c(=O)oc4c(O)c(O)cc1c4c23 [ellagic acid] | – | significantly inhibitory effects | significantly reduced | – | – | significantly delay | – | significantly inhibitory effects | comparable anti-diarrheal activities as loperamide | significantly reduced | comparable anti-diarrheal activities as loperamide

Reference: patent US20130344174A1, “Bioactive Fractions and Compounds from Polygonum genus, their Use in Anti-diarrhea and the Method of Preparation” (HONG KONG BAPTIST UNIVERSITY, priority 2012, published 2013)
